According to the NIST ThermoML archive (doi:10.1016/j.jct.2010.01.009):
Where “and” joins values, the source holds several entries; their conditions need not be identical. Identical values can stand only once. Numbers after ± are expanded uncertainties.

Conditions: Crystal, Calculated from knudsen effusion weight loss

SMILES | vapor or sublimation pressure (283.11 K) | vapor or sublimation pressure (285.13 K) | vapor or sublimation pressure (287.12 K) | vapor or sublimation pressure (289.13 K) | vapor or sublimation pressure (291.14 K) | vapor or sublimation pressure (293.13 K) | vapor or sublimation pressure (295.18 K) | vapor or sublimation pressure (297.15 K) | vapor or sublimation pressure (299.16 K) | vapor or sublimation pressure (271.14 K) | vapor or sublimation pressure (273.15 K) | vapor or sublimation pressure (275.17 K) | vapor or sublimation pressure (277.06 K) | vapor or sublimation pressure (279.15 K) | vapor or sublimation pressure (281.11 K) | vapor or sublimation pressure (283.19 K) | vapor or sublimation pressure (285.24 K) | vapor or sublimation pressure (287.13 K)
Cc1ccc(-n2cccc2)cc1 [1-(4-methylphenyl)-1H-pyrrole] | 0.00014 ± 7e-06 kPa and 0.000137 ± 7e-06 kPa | 0.000168 ± 8e-06 kPa and 0.000169 ± 8e-06 kPa and 0.000174 ± 9e-06 kPa | 0.00023 ± 1.2e-05 kPa and 0.000224 ± 1.1e-05 kPa and 0.00022 ± 1.1e-05 kPa | 0.000278 ± 1.4e-05 kPa and 0.000282 ± 1.4e-05 kPa and 0.000286 ± 1.4e-05 kPa | 0.000362 ± 1.8e-05 kPa and 0.000355 ± 1.8e-05 kPa | 0.000468 ± 2.3e-05 kPa and 0.000459 ± 2.3e-05 kPa and 0.000451 ± 2.3e-05 kPa | 0.000579 ± 2.9e-05 kPa and 0.000571 ± 2.9e-05 kPa and 0.000558 ± 2.8e-05 kPa | 0.000732 ± 3.7e-05 kPa and 0.000734 ± 3.7e-05 kPa | 0.000948 ± 4.7e-05 kPa and 0.000927 ± 4.6e-05 kPa and 0.000925 ± 4.6e-05 kPa |  |  |  |  |  |  |  |  | 
c1ccc(-n2cccc2)cc1 [1-phenylpyrrole] |  |  |  |  |  |  |  |  |  | 0.000151 ± 8e-06 kPa and 0.000147 ± 7e-06 kPa and 0.000143 ± 7e-06 kPa | 0.000191 ± 1e-05 kPa and 0.00019 ± 1e-05 kPa and 0.000185 ± 9e-06 kPa | 0.000255 ± 1.3e-05 kPa and 0.000247 ± 1.2e-05 kPa and 0.000241 ± 1.2e-05 kPa | 0.000336 ± 1.7e-05 kPa and 0.000311 ± 1.6e-05 kPa and 0.00033 ± 1.7e-05 kPa | 0.000426 ± 2.1e-05 kPa and 0.000414 ± 2.1e-05 kPa and 0.000397 ± 2e-05 kPa | 0.000537 ± 2.7e-05 kPa and 0.000525 ± 2.6e-05 kPa | 0.000682 ± 3.4e-05 kPa and 0.000678 ± 3.4e-05 kPa and 0.000651 ± 3.3e-05 kPa | 0.000905 ± 4.5e-05 kPa and 0.000887 ± 4.4e-05 kPa | 0.001123 ± 0.00012 kPa and 0.001111 ± 0.00011 kPa and 0.00106 ± 0.00011 kPa
